Measurements as given in ChEMBL document CHEMBL3792349, “Synthesis of novel diazaphosphinanes coumarin derivatives with promoted cytotoxic and anti-tyrosinase activities” (Bioorg Med Chem Lett, 2016).
Each block holds one molecule with its values, some of them ahead of it. Activity calls are given as the source filed them. The rule behind the calls is not given here.

Columns and labels:
[1] = biological target: T1, Tyrosinase (Agaricus bisporus) (UniProt O42713); test: Inhibition of mushroom tyrosinase using L-tyrosine as substrate assessed as dopachrome formation at 100 uM measured for 10 mins by spectrophotometric method relative to control
T1 sequence (whole entry): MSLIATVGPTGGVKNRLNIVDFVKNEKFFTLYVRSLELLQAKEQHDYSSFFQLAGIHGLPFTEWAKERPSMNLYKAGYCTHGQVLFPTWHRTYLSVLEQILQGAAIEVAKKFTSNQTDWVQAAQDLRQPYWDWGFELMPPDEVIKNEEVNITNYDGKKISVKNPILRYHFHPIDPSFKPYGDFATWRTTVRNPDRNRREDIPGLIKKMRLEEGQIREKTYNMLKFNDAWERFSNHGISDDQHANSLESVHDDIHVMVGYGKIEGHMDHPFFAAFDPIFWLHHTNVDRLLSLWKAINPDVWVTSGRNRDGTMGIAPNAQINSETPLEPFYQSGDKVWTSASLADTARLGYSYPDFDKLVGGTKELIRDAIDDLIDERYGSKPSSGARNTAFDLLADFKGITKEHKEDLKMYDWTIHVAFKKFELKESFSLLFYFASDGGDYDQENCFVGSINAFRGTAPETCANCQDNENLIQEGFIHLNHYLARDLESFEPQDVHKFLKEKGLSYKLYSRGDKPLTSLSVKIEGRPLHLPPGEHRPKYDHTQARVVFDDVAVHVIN

MCF7 = test: Cytotoxicity against human MCF7 cells assessed as inhibition of cell proliferation after 48 hrs by MTT assay; format: functional, cell-based
[2] = Cytotoxicity against human HCT116 cells assessed as inhibition of cell proliferation after 48 hrs by MTT assay; format: functional, cell-based, HCT-116

SMILES: COc1ccc(P2(=S)NC(=S)C3=C(N2)Oc2c(c(=S)oc4ccccc24)C3c2ccc(Cl)cc2)cc1 (single isomer, unassigned; diastereomer 2) [listing 1 of 2 here]
IC50 (MCF7; mcf7): 33 µM | IC50 ([2]; hct-116): 30 µM

SMILES: CCCCOc1ccc(C2C3=C(NP(=S)(c4ccc(OC)cc4)NC3=S)Oc3c2c(=S)oc2ccccc32)cc1 (single isomer, unassigned; diastereomer 2) [listing 1 of 2 here]
IC50 (MCF7; mcf7): > 100 µM | IC50 ([2]; hct-116): 56 µM

SMILES: COc1ccc(P2(=S)NC(=S)C3=C(N2)Oc2c(c(=S)oc4ccccc24)C3c2ccc(Cl)cc2)cc1 (single isomer, unassigned; diastereomer 1) [listing 1 of 2 here]
IC50 (MCF7; Homo sapiens, MCF7, 48 h): 32 µM | IC50 ([2]; Homo sapiens, HCT-116, 48 h): 32 µM

SMILES: COc1ccc(P2(=S)NC(=S)C3=C(N2)Oc2c(c(=S)oc4ccccc24)C3c2ccccc2)cc1 (single isomer, unassigned; diastereomer 1) [listing 2 of 2 here]
IC50 (MCF7; Homo sapiens, MCF7, 48 h): > 100 µM | IC50 ([2]; Homo sapiens, HCT-116, 48 h): 71 µM

SMILES: COc1cccc2c1C(=O)c1c(O)c3c(c(O)c1C2=O)C[C@@](O)(C(=O)CO)C[C@@H]3O[C@H]1C[C@H](N)[C@H](O)[C@H](C)O1 [DOXORUBICIN]
IC50 (MCF7; Homo sapiens, MCF7, 48 h): 0.38 µM

SMILES: COc1ccc(P2(=S)NC(=S)C3=C(N2)Oc2c(c(=S)oc4ccccc24)C3c2ccc(OC)c(OC)c2)cc1 (single isomer, unassigned; diastereomer 2)
inhibition [1]: 56.8%

SMILES: COc1ccc(C2C3=C(NP(=S)(c4ccc(OC)cc4)NC3=S)Oc3c2c(=S)oc2ccccc32)cc1 (single isomer, unassigned; diastereomer 2) [listing 2 of 2 here]
IC50 (MCF7; mcf7): 99 µM | IC50 ([2]; hct-116): 31.6 µM

SMILES: COc1ccc(P2(=S)NC(=S)C3=C(N2)Oc2c(c(=S)oc4ccccc24)C3c2ccc(C)cc2)cc1 (single isomer, unassigned; diastereomer 1) [listing 2 of 2 here]
IC50 (MCF7; mcf7): > 100 µM | IC50 ([2]; Homo sapiens, HCT-116, 48 h): 48 µM

SMILES: COc1ccc(P2(=S)NC(=S)C3=C(N2)Oc2c(c(=S)oc4ccccc24)C3c2ccc(OC)c(OC)c2)cc1 (single isomer, unassigned; diastereomer 1) [listing 1 of 2 here]
IC50 (MCF7; Homo sapiens, MCF7, 48 h): > 100 µM | IC50 ([2]; Homo sapiens, HCT-116, 48 h): > 100 µM

SMILES: COc1ccc(P2(=S)NC(=S)C3=C(N2)Oc2c(c(=S)oc4ccccc24)C3c2ccc(C)cc2)cc1 (single isomer, unassigned; diastereomer 2) [listing 1 of 2 here]
IC50 (MCF7; mcf7): 40 µM | IC50 ([2]; hct-116): 37 µM

SMILES: COc1ccc(C2C3=C(NP(=S)(c4ccc(OC)cc4)NC3=S)Oc3c2c(=S)oc2ccccc32)cc1 (single isomer, unassigned; diastereomer 1) [listing 2 of 2 here]
IC50 (MCF7; Homo sapiens, MCF7, 48 h): > 100 µM | IC50 ([2]; Homo sapiens, HCT-116, 48 h): 49 µM

SMILES: CCCCOc1ccc(C2C3=C(NP(=S)(c4ccc(OC)cc4)NC3=S)Oc3c2c(=S)oc2ccccc32)cc1 (single isomer, unassigned; diastereomer 1) [listing 1 of 2 here]
IC50 (MCF7; mcf7): 37.2 µM | IC50 ([2]; hct-116): 25.2 µM

SMILES: COc1ccc(P2(=S)NC(=S)C3=C(N2)Oc2c(c(=S)oc4ccccc24)C3c2ccccc2)cc1 (single isomer, unassigned; diastereomer 2) [listing 2 of 2 here]
IC50 ([2]; hct-116): 68 µM

SMILES: COc1ccc(P2(=S)NC(=S)C3=C(N2)Oc2c(c(=S)oc4ccccc24)C3c2ccc(OC)c(OC)c2)cc1 (single isomer, unassigned; diastereomer 1) [listing 2 of 2 here]
inhibition [1]: inactive

Continued, in another order:

inhibition [1]: inactive
SMILES: COc1ccc(P2(=S)NC(=S)C3=C(N2)Oc2c(c(=S)oc4ccccc24)C3c2ccccc2)cc1 (single isomer, unassigned; diastereomer 1) [listing 1 of 2 here]

inhibition [1]: 68.8%
SMILES: COc1ccc(C2C3=C(NP(=S)(c4ccc(OC)cc4)NC3=S)Oc3c2c(=S)oc2ccccc32)cc1 (single isomer, unassigned; diastereomer 2) [listing 1 of 2 here]

inhibition [1]: inactive
SMILES: COc1ccc(C2C3=C(NP(=S)(c4ccc(OC)cc4)NC3=S)Oc3c2c(=S)oc2ccccc32)cc1 (single isomer, unassigned; diastereomer 1) [listing 1 of 2 here]

inhibition [1]: inactive
SMILES: COc1ccc(P2(=S)NC(=S)C3=C(N2)Oc2c(c(=S)oc4ccccc24)C3c2ccccc2)cc1 (single isomer, unassigned; diastereomer 2) [listing 1 of 2 here]

inhibition [1]: 58.5%
SMILES: COc1ccc(P2(=S)NC(=S)C3=C(N2)Oc2c(c(=S)oc4ccccc24)C3c2ccc(C)cc2)cc1 (single isomer, unassigned; diastereomer 1) [listing 1 of 2 here]

inhibition [1]: 97.4%
SMILES: COc1ccc(P2(=S)NC(=S)C3=C(N2)Oc2c(c(=S)oc4ccccc24)C3c2ccccn2)cc1 (stereo not given)
IC50 (MCF7; Homo sapiens, MCF7, 48 h): > 100 µM | IC50 ([2]; Homo sapiens, HCT-116, 48 h): > 100 µM

inhibition [1]: 80.7%
SMILES: COc1ccc(P2(=S)NC(=S)C3=C(N2)Oc2c(c(=S)oc4ccccc24)C3c2ccc(Cl)cc2)cc1 (single isomer, unassigned; diastereomer 1) [listing 2 of 2 here]

inhibition [1]: 16.1%
SMILES: COc1ccc(P2(=S)NC(=S)C3=C(N2)Oc2c(c(=S)oc4ccccc24)C3c2ccc(Cl)cc2)cc1 (single isomer, unassigned; diastereomer 2) [listing 2 of 2 here]

inhibition [1]: 88.7%
SMILES: CCCCOc1ccc(C2C3=C(NP(=S)(c4ccc(OC)cc4)NC3=S)Oc3c2c(=S)oc2ccccc32)cc1 (single isomer, unassigned; diastereomer 2) [listing 2 of 2 here]

inhibition [1]: inactive
SMILES: COc1ccc(P2(=S)NC(=S)C3=C(N2)Oc2c(c(=S)oc4ccccc24)C3c2cccnc2)cc1 (stereo not given)
IC50 (MCF7; Homo sapiens, MCF7, 48 h): > 100 µM | IC50 ([2]; Homo sapiens, HCT-116, 48 h): > 100 µM

inhibition [1]: 61.8%
SMILES: COc1ccc(P2(=S)NC(=S)C3=C(N2)Oc2c(c(=S)oc4ccccc24)C3c2ccc(C)cc2)cc1 (single isomer, unassigned; diastereomer 2) [listing 2 of 2 here]

inhibition [1]: 55%
SMILES: CCCCOc1ccc(C2C3=C(NP(=S)(c4ccc(OC)cc4)NC3=S)Oc3c2c(=S)oc2ccccc32)cc1 (single isomer, unassigned; diastereomer 1) [listing 2 of 2 here]
